This note sets out measurements from patent publication US20120177701A1, “COMPOSITIONS COMPRISING IMMUNOSTIMULATORY NUCLEIC ACIDS AND RELATED METHODS” (priority 2010, published 2012).

The target in test [1] is T1, human TLR8 (Homo sapiens, UniProt Q9NR97).
T1 construct: host or cells: HEK293 (HEK-Blue hTLR8) with NF-kB-inducible SEAP reporter
T1 sequence (Q9NR97 27-1041): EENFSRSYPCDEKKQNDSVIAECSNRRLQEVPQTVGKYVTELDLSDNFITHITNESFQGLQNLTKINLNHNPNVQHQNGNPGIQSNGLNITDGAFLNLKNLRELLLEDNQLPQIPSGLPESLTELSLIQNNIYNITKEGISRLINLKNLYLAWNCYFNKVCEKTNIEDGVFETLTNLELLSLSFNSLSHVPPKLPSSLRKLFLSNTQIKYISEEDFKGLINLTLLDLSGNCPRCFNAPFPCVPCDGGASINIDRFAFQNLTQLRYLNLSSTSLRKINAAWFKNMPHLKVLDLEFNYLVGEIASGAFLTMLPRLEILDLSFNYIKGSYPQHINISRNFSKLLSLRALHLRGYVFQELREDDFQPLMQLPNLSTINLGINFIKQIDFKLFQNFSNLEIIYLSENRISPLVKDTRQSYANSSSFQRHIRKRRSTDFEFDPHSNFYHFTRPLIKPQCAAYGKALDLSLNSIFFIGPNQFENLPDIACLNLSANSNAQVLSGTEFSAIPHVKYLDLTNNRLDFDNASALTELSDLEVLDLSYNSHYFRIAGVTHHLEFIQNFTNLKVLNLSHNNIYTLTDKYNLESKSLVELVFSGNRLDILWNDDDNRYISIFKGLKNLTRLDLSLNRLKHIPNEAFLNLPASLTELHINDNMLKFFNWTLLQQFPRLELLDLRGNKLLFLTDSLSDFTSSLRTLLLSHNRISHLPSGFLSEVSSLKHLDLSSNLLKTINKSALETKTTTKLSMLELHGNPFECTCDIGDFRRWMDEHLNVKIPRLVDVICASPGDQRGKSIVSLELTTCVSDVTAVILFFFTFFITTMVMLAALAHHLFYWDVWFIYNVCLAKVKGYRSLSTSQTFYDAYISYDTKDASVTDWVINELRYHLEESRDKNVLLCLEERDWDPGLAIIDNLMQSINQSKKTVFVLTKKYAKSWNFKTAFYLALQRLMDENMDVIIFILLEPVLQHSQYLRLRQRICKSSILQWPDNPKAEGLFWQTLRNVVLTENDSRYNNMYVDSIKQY
Put plainly: HEK-Blue hTLR8 NF-kB-inducible SEAP reporter assay (TLR8 activation). It is filed as cell-based. (A reporter such as luciferase makes a cellular process visible.)

For test [2], the system named is HEK-Blue™ Null. Format: cell-based, human.
In test [3] the target is T2, human TLR3 (Homo sapiens, UniProt O15455).
T2 construct: expressed in transfected cells; host or cells: HEK-Blue hTLR3 (HEK293-derived reporter line)
T2 sequence (O15455 24-904): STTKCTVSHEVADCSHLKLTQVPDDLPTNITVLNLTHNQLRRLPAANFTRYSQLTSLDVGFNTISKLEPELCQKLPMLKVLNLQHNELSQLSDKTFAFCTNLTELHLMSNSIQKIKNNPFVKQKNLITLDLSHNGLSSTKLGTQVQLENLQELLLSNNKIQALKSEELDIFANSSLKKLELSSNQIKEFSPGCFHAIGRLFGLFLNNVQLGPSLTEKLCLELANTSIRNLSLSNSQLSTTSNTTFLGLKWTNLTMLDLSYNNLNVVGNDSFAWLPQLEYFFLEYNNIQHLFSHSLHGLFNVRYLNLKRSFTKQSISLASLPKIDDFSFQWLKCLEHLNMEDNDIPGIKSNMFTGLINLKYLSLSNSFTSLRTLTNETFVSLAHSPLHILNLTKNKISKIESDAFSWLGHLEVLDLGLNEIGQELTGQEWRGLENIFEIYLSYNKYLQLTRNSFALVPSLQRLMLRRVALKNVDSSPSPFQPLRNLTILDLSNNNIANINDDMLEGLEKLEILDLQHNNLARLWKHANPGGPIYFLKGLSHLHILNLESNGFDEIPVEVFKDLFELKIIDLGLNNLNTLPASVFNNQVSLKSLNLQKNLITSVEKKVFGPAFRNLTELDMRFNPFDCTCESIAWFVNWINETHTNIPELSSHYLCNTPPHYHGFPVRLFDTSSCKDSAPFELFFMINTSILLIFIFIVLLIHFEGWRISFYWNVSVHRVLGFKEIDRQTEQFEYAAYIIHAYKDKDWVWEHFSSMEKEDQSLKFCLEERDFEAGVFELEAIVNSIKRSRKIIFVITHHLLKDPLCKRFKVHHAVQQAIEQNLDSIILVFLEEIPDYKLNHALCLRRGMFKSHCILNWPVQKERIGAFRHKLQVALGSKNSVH
Format: cell-based.

The target in test [4] is T3, human TLR9 (Homo sapiens, UniProt Q9NR96).
T3 construct: expressed in transfected cells; host or cells: HEK-Blue hTLR9 (HEK293-derived reporter line)
T3 sequence (Q9NR96 26-1032): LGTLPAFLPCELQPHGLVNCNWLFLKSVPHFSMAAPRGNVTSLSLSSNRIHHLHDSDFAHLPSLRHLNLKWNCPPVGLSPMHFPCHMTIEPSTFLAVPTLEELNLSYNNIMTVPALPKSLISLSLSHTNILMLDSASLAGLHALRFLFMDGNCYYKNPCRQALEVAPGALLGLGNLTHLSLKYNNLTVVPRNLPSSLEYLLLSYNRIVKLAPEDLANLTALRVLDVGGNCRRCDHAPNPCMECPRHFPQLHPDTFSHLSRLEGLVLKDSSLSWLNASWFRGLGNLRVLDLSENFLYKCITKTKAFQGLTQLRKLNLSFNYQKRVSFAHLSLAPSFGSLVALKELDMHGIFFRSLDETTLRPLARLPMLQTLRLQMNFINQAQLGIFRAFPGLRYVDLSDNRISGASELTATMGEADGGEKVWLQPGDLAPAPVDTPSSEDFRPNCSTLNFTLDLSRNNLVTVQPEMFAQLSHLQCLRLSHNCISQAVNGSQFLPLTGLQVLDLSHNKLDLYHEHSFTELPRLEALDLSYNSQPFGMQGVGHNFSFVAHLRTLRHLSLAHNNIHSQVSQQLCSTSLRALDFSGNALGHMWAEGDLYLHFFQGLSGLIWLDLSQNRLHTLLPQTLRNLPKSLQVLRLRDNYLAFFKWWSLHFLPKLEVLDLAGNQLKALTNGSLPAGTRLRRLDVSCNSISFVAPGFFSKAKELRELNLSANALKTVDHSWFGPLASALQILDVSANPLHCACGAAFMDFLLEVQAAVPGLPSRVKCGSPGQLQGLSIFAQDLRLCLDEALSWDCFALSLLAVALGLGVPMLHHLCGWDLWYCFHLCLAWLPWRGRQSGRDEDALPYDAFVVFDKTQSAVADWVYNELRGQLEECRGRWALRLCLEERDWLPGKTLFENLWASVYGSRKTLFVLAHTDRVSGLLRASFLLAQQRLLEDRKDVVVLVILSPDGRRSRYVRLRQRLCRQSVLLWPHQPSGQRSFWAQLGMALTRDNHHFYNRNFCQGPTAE
Format: cell-based.

The subject of test [5] is J774 murine macrophages. Kind of test: TNF-α induction in mouse macrophage cell line J774. Format: cell-based. The protocol:
Induction of TNF-α by macrophages is a hallmark of human TLR8 activation (Forsbach et al., 2008, J. Immunol., 180:3729-38; Ghosh et al., 2007, Int. Immunopharmacol., 7:1111-21; Gorden et al., 2005, J. Immunol., 174:1259-68). […] In the following experiment mouse macrophage cell line, J774, has been transfected by test ribonucleotides as described above for HEK-Blue™ hTLR8 cells (with the exception that 2-10×10^4 cells/well were used) and TNF-α was measured in culture supernatants at 16-20 hours after transfection.

In test [6] the test system is primary human lymphocytes. It is filed as cell-based.

As to “5′-AAGAAGAAAUAGAUUUAUUUUUAAAUUUUUGUGU-3′ [SL-0005]”, in test [1], the “TLR8 activation (fold increase of SEAP induction over the background), described in words” value is given as “stronger levels of TLR8 activation” and the “concentration at which TLR8 activation was detected starting” value stood at 40 nM. Moreover, the “activation of SEAP expression” value in test [2] is given as “No activation of SEAP expression”. Besides, the “activation of SEAP expression” value in test [3] is given as “No activation of SEAP expression”. In test [4], the “activation of SEAP expression” value is listed as “No activation of SEAP expression”. Also, the “TNF-α induction, described in words” value in test [5] is “strongly induced TNF-α expression, to the level seen when R-0006 was used”. Besides, in test [6], the “11-12(p40) induction” value is listed as “significant levels”, the IFNγ induction result is “significant levels”, the “IL-4 induction (Th2-type cytokine)” value is listed as “insignificant” and the “IL-5 induction (Th2-type cytokine)” value was “insignificant”. In test [6], the IL-6 induction result is “significant levels”, the IL-10 induction result is given as “significant levels”, the IL-23 induction result is “significant levels” and the TNFα induction entry is “significant levels”.
